Data on one molecule can be found in publication PMC10520499, “Next step in the development of mesoprogestins: the preclinical profile of EC313” (Frontiers in Endocrinology, 2023).

Structures are written as SMILES. Where “and” joins values, the source holds several entries; their conditions need not be identical. Equal entries are not always repeated.

As a reminder, the IC50 is the concentration at which inhibition is half-maximal.

This test deals with T1, human mineralocorticoid receptor (hMR) (Homo sapiens, UniProt P08235).
T1 construct: host or cells: U2OS, transient co-transfection
T1 sequence (P08235 1-984): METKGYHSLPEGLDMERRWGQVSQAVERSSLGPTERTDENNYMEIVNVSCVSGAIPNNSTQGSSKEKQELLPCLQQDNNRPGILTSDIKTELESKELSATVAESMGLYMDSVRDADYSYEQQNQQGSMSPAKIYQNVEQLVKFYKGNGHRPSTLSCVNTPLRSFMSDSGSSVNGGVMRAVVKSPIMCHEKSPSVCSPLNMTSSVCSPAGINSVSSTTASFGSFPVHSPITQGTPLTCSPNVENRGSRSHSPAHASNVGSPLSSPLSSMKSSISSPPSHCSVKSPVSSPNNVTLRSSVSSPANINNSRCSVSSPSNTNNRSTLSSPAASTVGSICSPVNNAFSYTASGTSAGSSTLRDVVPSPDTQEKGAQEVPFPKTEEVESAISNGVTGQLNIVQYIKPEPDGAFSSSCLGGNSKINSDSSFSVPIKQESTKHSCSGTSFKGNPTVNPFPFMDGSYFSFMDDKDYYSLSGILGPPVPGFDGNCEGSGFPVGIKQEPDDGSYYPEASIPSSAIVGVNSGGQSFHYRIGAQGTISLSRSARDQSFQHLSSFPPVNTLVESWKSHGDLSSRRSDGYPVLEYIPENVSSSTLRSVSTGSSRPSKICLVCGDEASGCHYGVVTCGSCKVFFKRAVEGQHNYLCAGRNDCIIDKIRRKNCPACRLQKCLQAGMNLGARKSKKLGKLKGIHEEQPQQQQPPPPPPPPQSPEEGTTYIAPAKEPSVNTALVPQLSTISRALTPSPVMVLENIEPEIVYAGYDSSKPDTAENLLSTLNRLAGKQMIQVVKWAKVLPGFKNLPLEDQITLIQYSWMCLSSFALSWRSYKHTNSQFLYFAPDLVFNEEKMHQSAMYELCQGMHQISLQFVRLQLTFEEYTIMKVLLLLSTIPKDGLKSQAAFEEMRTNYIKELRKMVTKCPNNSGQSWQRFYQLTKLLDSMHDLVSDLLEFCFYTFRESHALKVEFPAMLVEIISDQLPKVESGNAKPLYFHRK
The test is described as follows: MR transactivation (U2OS, MMTV-LUC). In kind it is cell-based. The text has this:
The U2OS cell line which expresses the mineralocorticoid receptor was used to study the gene expression on the transcriptional level under the influence of EC313 and the reference compound. The cells were transfected with a vector encoding a human full-length mineralocorticoid receptor (hMR) linked to the reporter vector MMTV/LUC. Cells were transiently and stably transfected in order to reach high protein expression. Next, co-transfected U2OS cells carrying mineralocorticoid receptors and reporter vector MMTV/LUC were stimulated by the tested compounds (Aldosterone or EC313) or the mixture: aldosterone and an appropriate range of concentrations of EC313. The agonist and antagonist properties of EC313 toward tested receptor MR were analyzed using luminescence detection.
In order to develop the transfection assay, plasmid-included vectors coding sequences for the receptor as well as the reporter gene were generated and isolated, respectively. Vector pcDNA3.1 coding sequence for full length of human MR (MR cDNA ORF clone in pcDNA3.1+/C-(K)-DYK) was used as an expression vector for MR and was linked to the reporter system (pGL4.36-MMTV/LUC) building with vector pGL4.36 coding the mineralocorticoid responsive element (MMTV) and firefly luciferase [luc2P/Hygro].
Transfection was performed on a 96-well plate (15.5x10^3 cells per well) in culture medium (RPMI phenol red, 10% FBS, L-Glu) w/o antibiotics according to the manufacturer’s specification. Prior to transfection, plated cells were approximately 70%–80% confluent. 24h later, cells were treated with test compounds overnight.
The properties of EC313 to induce/inhibit tested receptor was studied in agonistic and antagonistic approaches. Co-transfected U2OS cells were stimulated with either aldosterone (0.009 nM - 1200 nM) or EC313 (0.009 nM - 1200 nM) in order to determine and compare the agonist potential of test compounds. The antagonistic activity was checked in competitive interaction between EC313 (0.009 nM - 1200 nM) and 0.4 nM of Aldosterone.

For the molecule `C[C@]12C[C@H](c3ccc(-c4ccoc4)cc3)C3=C4CCC(=O)C=C4CC[C@H]3[C@@H]1CC[C@]21OCCC1=C(F)F` [EC313], the “transactivation of hMR (agonism)” value was “does not transactivate hMR”. Besides, the “fold lower potency than Spironolactone” value (MR antagonism) is given as “approximately 80 fold”. For the setting “MR, 0.4 nM Aldosterone, read-out: IC50, antagonism of Aldosterone-induced transactivation”, the IC50 was 2000 nM and ~2000 nM.
